PMC7822874, “Chemoprotective antimalarials identified through quantitative high-throughput screening of Plasmodium blood and liver stage parasites” (Scientific Reports, 2021)
Values joined by “and” are separate entries in the source; they are usually repeats but may differ in a detail not shown here. Equal entries are not always repeated. Where two headings read alike, the source gives them in different places.

Legend:
[1] = system: T1, Plasmodium falciparum Dd2-attB-ScDHODH (transgenic line expressing yeast DHODH), asexual blood stages; assay: organism not typed; design: replicate k of 3 (each line is one of three independent assays; the three lines of one compound and parasite line follow each other)
T1 construct: Dd2-attB-ScDHODH, the transgenic line that expresses yeast DHODH
Experimental: (§1) The overexpression of the fumarate-dependent yeast DHODH confers resistance to compounds that inhibit the parasite mETC, or the parasite DHODH enzyme that depends on ubiquinone provided by the parasite mETC. Assays were performed in three independent assays on a subset of compounds, and differences between the Dd2-attB parental line and the ScDHODH transgenic line were analyzed using two-sided Student’s t-tests.

[2] = system: T2, Plasmodium falciparum Dd2-attB (parental line), asexual blood stages; assay: microbe, parasite or virus in culture; design: replicate k of 3 (each line is one of three independent assays; the three lines of one compound and parasite line follow each other); details: n = 1; for Individual replicates / Log AC50 (M): 72 h; for AC50: Plasmodium falciparum, DD2, 72 h
T2 construct: Dd2-attB, the isogenic parental line
Experimental: as §1

[3] = system: P. berghei-ANKA-GFP-LucCON liver stage parasites in HepG2-A16-CD81EGFP cells; assay: P. berghei liver stage Pb-Luc assay, Method 1 (UCSD, 1536-well); assay type: cell-based, Plasmodium berghei; details: Plasmodium berghei, 48 h, average of 2 wells, 1536-well plate; for activity at 1 µM: nominal 1 uM (10 mM stock), […] for 15 mM, 1.2 uM for 12 mM, 2 uM for 20 mM stock; for activity at 3 µM: nominal 3 uM (10 mM stock), 4.5 uM for 15 mM, 3.6 uM for 12 mM, 6 uM for 20 mM stock; for all read-outs here: reference of the scale not given here
[4] = system: Plasmodium falciparum Dd2 asexual blood stage parasites; assay: microbe, parasite or virus in culture; design: species or system Plasmodium falciparum Dd2 in human erythrocytes; single determination (one 11-point concentration-response curve); details: Plasmodium falciparum, DD2, Erythrocyte, 72 h; read-out: AC50
in vitro = details: human, HepG2-A16-CD81EGFP cells, uninfected
HepG2-A16-CD81EGFP cells = details: average of 2 wells, repeat 2; for HepG2 viability signal, 1 uM, repeat 2: nominal 1 uM (10 mM stock), […] for 15 mM, 1.2 uM for 12 mM, 2 uM for 20 mM stock; for HepG2 viability signal, 3 uM, repeat 2: nominal 3 uM (10 mM stock), 4.5 uM for 15 mM, 3.6 uM for 12 mM, 6 uM for 20 mM stock
[5] = 72 h; n = 1; read-out: Individual replicates / Log AC50 (converted)
[6] = read-out: Individual replicates / Log AC50 (converted)
[7] = repeat 1, read-out: Pb-Luc signal, 1 uM, repeat 1
[8] = repeat 2, read-out: Pb-Luc signal, 1 uM, repeat 2
[9] = repeat 3, read-out: Pb-Luc signal, 1 uM, repeat 3
[10] = repeat 1, read-out: Pb-Luc signal, 3 uM, repeat 1
[11] = repeat 2, read-out: Pb-Luc signal, 3 uM, repeat 2
[12] = repeat 3, read-out: Pb-Luc signal, 3 uM, repeat 3

SMILES	Individual replicates / Log AC50 (M) ([1]; 72 h, n = 1)	AC50 [1, 5] [µM]	Individual replicates / Log AC50 (M) [2]	AC50 [2, 6] [M]	further results
Oc1ccc(CNCc2ccc3c(c2)OCO3)c2cccnc12 [NCGC00183368-01]	-4.7486 Log AC50 (M)	15.9	-4.7986 Log AC50 (M)	1.59e-05	
O=C(O)c1ccc(O)c2ncc(N3CCN(Cc4ccccc4)CC3)cc12 [NCGC00241045-04]			-4.6986 Log AC50 (M) and -4.7986 Log AC50 (M) (2×)		
Cc1nn2c(c1-c1ccnn1C(C)C)N(CCCc1ccccc1)CCC2 [NCGC00499719-01]		17.8			
CCOc1ccc(NC(=O)c2c(NCc3cccnc3)sc3c2CCCC3)cc1 [NCGC00140582-02]	-5.2486 Log AC50 (M) and -5.1486 Log AC50 (M)	6.33	-5.3486 Log AC50 (M) and -5.2986 Log AC50 (M)	5.64e-06	
COC(=O)c1ccc(O)c2ncc(N3CC[C@H](N)C3)cc12 [NCGC00241042-01]	-4.7486 Log AC50 (M)	17.8	-4.9986 Log AC50 (M) and -4.8486 Log AC50 (M)	1.78e-05	
O=C(Nc1ccccc1F)c1ccc(O)c2ncccc12 [NCGC00183800-01]	-5.2986 Log AC50 (M) and -5.0486 Log AC50 (M)	5.64	-5.1986 Log AC50 (M) and -5.2486 Log AC50 (M)	7.1e-06	
Cc1ccccc1C(OCCN1CCCCC1)c1cc2nccc(B(O)O)c2s1 (centres unmarked) [NCGC00481524-01]		15.9	-4.8486 Log AC50 (M) and -4.7986 Log AC50 (M)	1.42e-05	Individual replicates / Log AC50 (M) ([1]; 72 h; n = 1): -4.7986 Log AC50 (M)
CN(C)c1ccc(-c2cc(O)c3ncccc3c2)cc1 [NCGC00183795-01]	-4.7486 Log AC50 (M) and -4.9986 Log AC50 (M)		-5.0986 Log AC50 (M) and -5.1486 Log AC50 (M)	8.94e-06	
Oc1ccc(CNc2ccccc2C(F)(F)F)c2cccnc12 [NCGC00184897-01]	-4.8486 Log AC50 (M) and -4.7486 Log AC50 (M)	15.9	-4.8986 Log AC50 (M) and -4.7986 Log AC50 (M)	1.26e-05	
CC1(C)OB(c2ccc(O)c3ncc(N4CCNCC4)cc23)OC1(C)C [NCGC00241053-01]	-5.0486 Log AC50 (M) and -4.9986 Log AC50 (M)	7.1	-4.8986 Log AC50 (M) and -5.0486 Log AC50 (M)	8.94e-06	
O=C(NCCCc1ccccc1)c1cccc(-c2cc(O)c3ncccc3c2)c1 [NCGC00244536-01]	-4.8986 Log AC50 (M)		-5.2486 Log AC50 (M) and -5.1986 Log AC50 (M)	7.1e-06	
CCCCN1CCCc2cc(CN(CCCN3CCOCC3)C(=O)Nc3ccc(CC)cc3)ccc21 [NCGC00140595-02]	-5.0486 Log AC50 (M)	7.97	-5.0986 Log AC50 (M)	7.97e-06	
CC(=O)Nc1cccc(-c2csc(Nc3cc(C)ccn3)n2)c1 [NCGC00357426-01]	-4.8486 Log AC50 (M)		-4.8486 Log AC50 (M) (2×) and -4.7986 Log AC50 (M)		
O=C(NCCCN1CCCCCC1)c1cccc(-c2cc(O)c3ncccc3c2)c1 [NCGC00247760-01]		15.9	-4.8986 Log AC50 (M) and -4.7486 Log AC50 (M)	2e-05	
O=C(CC[S+](=O)([O-])c1nc(-c2cccs2)cc(C(F)(F)F)n1)Nc1ccc(OC(F)(F)F)cc1 [NCGC00103927-03]	-4.8486 Log AC50 (M)	15.9	-4.7986 Log AC50 (M)	1.78e-05	
CN1CCN(c2cnc3c(O)ccc(C(=O)O)c3c2)CC1 [NCGC00241033-01]			-4.8986 Log AC50 (M) and -4.9486 Log AC50 (M)	1.78e-05	
COc1ccc(NC(=O)CN2C(=O)CCn3nc(-c4cccn4C)cc32)cc1Cl [NCGC00132050-02]			-4.9986 Log AC50 (M)	8.94e-06	
O=C(c1ccccc1F)N1c2nc(-c3ccco3)nn2C2(CCCCC2)[C@@H]2CCCC[C@@H]21 [NCGC00118206-02]			-4.7986 Log AC50 (M)	1.59e-05	

SMILES	Individual replicates / Log AC50 (M) ([1]; 72 h, n = 1)	AC50 [1, 5] [µM]	Individual replicates / Log AC50 (M) [2]	AC50 [2, 6] [M]	further results
c1ccc(CCn2nc(-c3cnccn3)nc2CCCN2CCCCC2)cc1 [NCGC00390063-01]				7.97e-06	
Cc1nnc2c3ccccc3nc(N3CCN(c4ccccc4)CC3)n12 [NCGC00107295-02]			-4.8986 Log AC50 (M) and -4.9986 Log AC50 (M)		
c1ccc(CN2CCCn3ncc(-c4ccccc4-c4ccccc4)c32)cc1 [NCGC00499205-01]			-4.8486 Log AC50 (M)	1.59e-05	
O=C(O)c1ccc(O)c2ncc(N3CCCCC3CCc3ccccn3)cc12 (centres unmarked) [NCGC00241756-01]				2e-05	
CCOC(=O)CCNc1cc(N2CCc3ccccc3CC2)nc(-c2ccccn2)n1 [NCGC00344626-02]			-5.0486 Log AC50 (M) and -5.0986 Log AC50 (M)	6.33e-06	
O=C(NCCCN1CCNCC1)c1cccc(-c2cc(O)c3ncccc3c2)c1 [NCGC00244531-01]				1.59e-05	
CN(C)CCCCCCNC(=O)c1cccc(-c2cc(O)c3ncccc3c2)c1 [NCGC00247743-01]				2e-05	
CN1CCC(CNCc2nccc3c(=O)[nH]c(COc4ccc(Cc5ccccc5)cc4)nc23)C1 (centres unmarked) [NCGC00489856-02]			-4.7486 Log AC50 (M)		
Cc1nn2c(c1-c1ccccc1-c1ccccc1)N(Cc1ccccc1)CCC2 [NCGC00420451-02]				1.59e-05	
Cc1ccc(CN2C(=O)C(O)(CC(=O)c3ccc(C)cc3)c3ccccc32)cc1 (centres unmarked) [NCGC00099997-03]				1.78e-05	
O=C(NCCCN1CC[S+](=O)([O-])CC1)c1cccc(-c2cc(O)c3ncccc3c2)c1 [NCGC00249378-01]		20			Individual replicates / Log AC50 (M) ([1]; 72 h; n = 1): -4.6986 Log AC50 (M)
Cc1cccc(N2CCN(C(=O)Cn3ncc4c3-c3ccccc3OC4)CC2)c1C [NCGC00112661-02]				1.42e-05	
O=C(NC1CC1)c1cccc(-c2cc(O)c3ncccc3c2)c1 [NCGC00247738-01]					AC50 ([2]; read-out: Individual replicates / Log AC50 (M) (converted)): 1.78e-05 M
NC(=O)c1csc(-n2cc(Cc3ccc([S+](N)(=O)[O-])cc3)c(-c3cccc(-c4ccccc4)c3)n2)n1 [NCGC00390757-01]			-4.9986 Log AC50 (M) and -4.8486 Log AC50 (M)	2e-05	
CCOC(=O)c1ccncc1Nc1nn(CCN2CCC(F)(F)CC2)c2ccc(F)cc12 [NCGC00388588-01]			-4.7486 Log AC50 (M) and -4.7986 Log AC50 (M)	1.59e-05	
O=C(O)c1ccc(O)c2ncc(N3CCN(Cc4ccccc4)CC3)cc12 [NCGC00241045-03]				1.78e-05	
COc1ccccc1NC(=O)N1CCOc2ccc(CN3CCc4ccccc4C3)cc2C1 [NCGC00471234-01]					activity at 1 µM [3, 7]: 118%; activity at 1 µM [3, 8]: 82%; activity at 1 µM [3, 9]: 108%; activity at 3 µM [3, 10]: 110%; activity at 3 µM [3, 11]: 87.1%; activity at 3 µM [3, 12]: 47%; AC50 [4]: 2.37 µM; viability at 48 h, 1 µM (in vitro): 98%; viability at 48 h, 3 µM (in vitro): 96.8%; HepG2 viability signal, 1 uM, repeat 2 (HepG2-A16-CD81EGFP cells): 96.28%; HepG2 viability signal, 3 uM, repeat 2 (HepG2-A16-CD81EGFP cells): 96.50%
COC(=O)c1ccc2[nH]c(C[C@@H]3C[C@@H](C(C)C)[C@H](CNC4CCCCC4)C=C3C)nc2c1 [NCGC00401987-01]					activity at 1 µM [3, 7]: 81.1%; activity at 1 µM [3, 8]: 132%; activity at 1 µM [3, 9]: 98.9%; activity at 3 µM [3, 10]: 56.8%; activity at 3 µM [3, 11]: 65%; activity at 3 µM [3, 12]: 83.4%; AC50 [4]: 8.41 µM; viability at 48 h, 1 µM (in vitro): 99.2%; viability at 48 h, 3 µM (in vitro): 102%; HepG2 viability signal, 1 uM, repeat 2 (HepG2-A16-CD81EGFP cells): 103.84%; HepG2 viability signal, 3 uM, repeat 2 (HepG2-A16-CD81EGFP cells): 105.05%
